Results: BindingDB's records for doi:10.1016/s0167-0115(98)00049-4 (Uppsala University, 1998)
pKi: −log10 of the molar value. Non-standard residues stand in square brackets, D forms with d. Residues, ends and D or L forms follow the SMILES beside them. Ahx = NCCCCCC(=O)O

What follows are compounds tested against T1, Neuropeptide Y receptor type 2 (Cavia porcellus, UniProt Q9Z2D5).
T1 sequence (Q9Z2D5 whole entry): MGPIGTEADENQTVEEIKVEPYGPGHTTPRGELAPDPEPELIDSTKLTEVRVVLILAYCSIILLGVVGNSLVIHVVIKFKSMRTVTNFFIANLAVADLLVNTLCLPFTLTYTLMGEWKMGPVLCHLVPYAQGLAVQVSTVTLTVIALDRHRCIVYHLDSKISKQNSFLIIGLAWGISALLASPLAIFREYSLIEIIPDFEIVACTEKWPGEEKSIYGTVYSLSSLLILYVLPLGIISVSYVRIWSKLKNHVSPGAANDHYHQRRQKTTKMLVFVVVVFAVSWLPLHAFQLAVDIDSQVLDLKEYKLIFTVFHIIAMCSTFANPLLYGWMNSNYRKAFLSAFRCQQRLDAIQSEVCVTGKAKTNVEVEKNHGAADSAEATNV

pKi	Compound
9.74	CC[C@H](C)[C@H](NC(=O)[C@H](Cc1ccc(O)cc1)NC(=O)[C@H](Cc1cnc[nH]1)NC(=O)[C@H](CCCNC(=N)N)NC(=O)CCCCCNC(=O)[C@H](CCCCN)NC(=O)[C@H](CO)NC(=O)[C@@H]1CCCN1C(=O)[C@@H](N)Cc1ccc(O)cc1)C(=O)N[C@@H](CC(N)=O)C(=O)N[C@@H](CC(C)C)C(=O)N[C@H](C(=O)N[C@H](C(=O)N[C@@H](CCCNC(=N)N)C(=O)N[C@@H](CCC(N)=O)C(=O)N[C@@H](CCCNC(=N)N)C(=O)N[C@@H](Cc1ccc(O)cc1)C(N)=O)[C@@H](C)O)[C@@H](C)CC [NPY5-24, Ahx] (H-YPSK[Ahx]RHYINLITRQRY-NH2)
9.93	CC[C@H](C)[C@H](NC(=O)[C@H](Cc1ccc(O)cc1)NC(=O)[C@H](Cc1c[nH]cn1)NC(=O)[C@H](CCCNC(=N)N)NC(=O)[C@H](CC(C)C)NC(=O)[C@H](C)NC(=O)[C@H](CO)NC(=O)[C@H](Cc1ccc(O)cc1)NC(=O)CCCCCNC(=O)[C@H](CC(N)=O)NC(=O)[C@H](CC(=O)O)NC(=O)[C@@H]1CCCN1C(=O)[C@H](CCCCN)NC(=O)[C@H](CO)NC(=O)[C@@H]1CCCN1C(=O)[C@@H](N)Cc1ccc(O)cc1)C(=O)N[C@@H](CC(N)=O)C(=O)N[C@@H](CC(C)C)C(=O)N[C@H](C(=O)N[C@H](C(=O)N[C@@H](CCCNC(=N)N)C(=O)N[C@@H](CCC(N)=O)C(=O)N[C@@H](CCCNC(=N)N)C(=O)N[C@@H](Cc1ccc(O)cc1)C(N)=O)[C@@H](C)O)[C@@H](C)CC [NPY8-20, Ahx] (H-YPSKPDN[Ahx]YSALRHYINLITRQRY-NH2)
7.07	CC[C@H](C)[C@H](NC(=O)[C@H](Cc1ccc(O)cc1)NC(=O)[C@H](Cc1cnc[nH]1)NC(=O)[C@H](CCCNC(=N)N)NC(=O)[C@H](CC(C)C)NC(=O)[C@H](C)NC(=O)[C@H](CO)NC(=O)[C@H](Cc1ccc(O)cc1)NC(=O)CCCCCNC(=O)[C@H](CC(N)=O)NC(=O)[C@H](CC(=O)O)NC(=O)[C@@H]1CCCN1C(=O)[C@H](CCCCN)NC(=O)[C@H](CO)NC(=O)[C@@H]1CCCN1C(=O)[C@@H](N)Cc1ccc(O)cc1)C(=O)N[C@@H](CC(N)=O)C(=O)N[C@@H](CC(C)C)C(=O)N[C@H](C(=O)N[C@H](C(=O)N[C@@H](CCCNC(=N)N)C(=O)N1CCC[C@H]1C(=O)N[C@@H](CCCNC(=N)N)C(=O)N[C@@H](Cc1ccc(O)cc1)C(N)=O)[C@@H](C)O)[C@@H](C)CC [NPY8-20, Pro34, Ahx] (H-YPSKPDN[Ahx]YSALRHYINLITRPRY-NH2)
9.87	CC[C@H](C)[C@H](NC(=O)[C@H](Cc1ccc(O)cc1)NC(=O)[C@H](Cc1cnc[nH]1)NC(=O)[C@H](CCCN=C(N)N)NC(=O)[C@H](CC(C)C)NC(=O)[C@H](C)NC(=O)[C@@H](N)CO)C(=O)N[C@@H](CC(N)=O)C(=O)N[C@@H](CC(C)C)C(=O)N[C@H](C(=O)N[C@H](C(=O)N[C@@H](CCCN=C(N)N)C(=O)N[C@@H](CCC(N)=O)C(=O)N[C@@H](CCCN=C(N)N)C(=O)N[C@@H](Cc1ccc(O)cc1)C(N)=O)[C@@H](C)O)[C@@H](C)CC [NPY22-36, rat, human]
6.00	H-APLEPEYPGDNATPEQMAQYAAELRRYINMLTRPRY-NH2 [CAS_59763-91-6]
6.53	H-INPIYRLRY-NH2 [NPY 28-36, [P30, Y32, L34]]
